The source of these data is patent US8765773B2, “Substituted hydroxamic acids and uses thereof” (Millennium Pharmaceuticals, Inc., priority 2010, dated 2014).

For one assay, the target named is T1, purified human HDAC6 (Homo sapiens, UniProt Q9UBN7).
T1 construct: purchased BPS Bioscience 5006
T1 sequence (Q9UBN7 1-1215): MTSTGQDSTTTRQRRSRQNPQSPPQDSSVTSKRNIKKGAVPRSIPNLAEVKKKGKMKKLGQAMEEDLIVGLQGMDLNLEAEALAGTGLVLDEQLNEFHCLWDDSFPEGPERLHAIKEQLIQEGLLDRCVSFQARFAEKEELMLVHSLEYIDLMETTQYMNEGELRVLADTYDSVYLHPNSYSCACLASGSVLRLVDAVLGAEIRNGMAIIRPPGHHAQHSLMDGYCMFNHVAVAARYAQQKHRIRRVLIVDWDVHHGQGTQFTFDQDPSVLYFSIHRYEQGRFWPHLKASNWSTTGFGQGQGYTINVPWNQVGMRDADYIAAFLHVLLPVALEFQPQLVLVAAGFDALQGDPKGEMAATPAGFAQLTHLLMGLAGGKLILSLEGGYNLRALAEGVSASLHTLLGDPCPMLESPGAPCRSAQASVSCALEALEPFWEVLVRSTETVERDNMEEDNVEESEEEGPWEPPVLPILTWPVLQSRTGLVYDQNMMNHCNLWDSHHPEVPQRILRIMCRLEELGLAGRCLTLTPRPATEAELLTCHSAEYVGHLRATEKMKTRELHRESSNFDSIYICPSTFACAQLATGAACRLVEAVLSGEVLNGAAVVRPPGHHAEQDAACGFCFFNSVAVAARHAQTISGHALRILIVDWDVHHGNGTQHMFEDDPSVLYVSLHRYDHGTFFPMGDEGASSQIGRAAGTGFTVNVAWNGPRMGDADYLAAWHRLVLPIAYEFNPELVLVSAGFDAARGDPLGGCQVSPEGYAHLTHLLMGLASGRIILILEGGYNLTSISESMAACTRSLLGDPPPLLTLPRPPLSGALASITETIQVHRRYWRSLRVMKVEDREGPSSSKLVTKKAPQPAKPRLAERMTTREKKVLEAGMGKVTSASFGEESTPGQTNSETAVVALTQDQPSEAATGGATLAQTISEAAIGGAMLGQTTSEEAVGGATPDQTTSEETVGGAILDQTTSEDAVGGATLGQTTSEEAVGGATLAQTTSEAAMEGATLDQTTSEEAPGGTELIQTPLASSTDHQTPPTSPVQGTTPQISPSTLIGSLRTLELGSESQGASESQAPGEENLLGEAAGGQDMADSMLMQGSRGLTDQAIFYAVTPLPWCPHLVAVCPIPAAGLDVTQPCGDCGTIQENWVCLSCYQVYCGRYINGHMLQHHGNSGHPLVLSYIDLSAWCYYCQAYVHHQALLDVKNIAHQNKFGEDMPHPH
Description: HDAC6 Enzyme Assay. The format is biochemical. Particulars: compound concentration 0.37 μM, read-out: Percent Inhibition. The method, boiled down:
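Readout is AMC fluorescence (Ex 340 nm, Em 460 nm) after trypsin cleavage of the deacetylated Ac-Arg-Gly-Lys(Ac)-AMC product. Reaction: purified human HDAC6, compound or vehicle, 1 hour, 30° C, quenched by trichostatin A. Single-concentration percent inhibition or IC50 calculated versus DMSO-treated samples.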
As to `O=C(NO)c1ccc2ncn(Cc3cccc(-c4cc5ccccc5s4)c3)c(=O)c2c1` [Compound I-268, 3-[3-(1-benzothien-2-yl)benzyl]-N-hydroxy-4-oxo-3,4-dihydroquinazoline-6-carboxamide], the inhibition at 0.37 µM is 93.2%. The same measure, in the same setting: the figure for `CN(C)c1ccc(-c2nc3cc(C(=O)NO)ccc3c(=O)n2Cc2ccc(C(F)(F)F)cc2)cc1` [Compound I-274, 2-[4-(dimethylamino)phenyl]-N-hydroxy-4-oxo-3-[4-(trifluoromethyl)benzyl]-3,4-dihydroquinazoline-7-carboxamide] is 78.8%.

The same assay, now with this note: compound concentration 0.412 μM, read-out: Percent Inhibition.
As to `O=C(NO)c1ccc2ccn(CC3CC3)c(=O)c2c1` [Compound I-261, 2-(cyclopropylmethyl)-N-hydroxy-1-oxo-1,2-dihydroisoquinoline-7-carboxamide], the inhibition at 0.412 µM was 87.5%. Turning to `O=C(NO)c1ccc2c(=O)n(-c3ccc(Cl)cc3)c(NCc3ccc(Cl)cc3)nc2c1` [Compound I-262, 2-[(4-chlorobenzyl)amino]-3-(4-chlorophenyl)-N-hydroxy-4-oxo-3,4-dihydroquinazoline-7-carboxamide], the inhibition at 0.412 µM was 68.2%. Regarding `O=C(NO)c1ccc2c(=O)n(CCc3ccccn3)c(-c3ccccc3)nc2c1` [Compound I-263, N-hydroxy-4-oxo-2-phenyl-3-(2-pyridin-2-ylethyl)-3,4-dihydroquinazoline-7-carboxamide], the inhibition at 0.412 µM is 91.1%. Same read-out and setting: the figure for `O=C(NO)c1ccc2[nH]c(=O)n(Cc3ccccc3)c(=O)c2c1` [Compound I-264, 3-benzyl-N-hydroxy-2,4-dioxo-1,2,3,4-tetrahydroquinazoline-6-carboxamide] is 93%; for `Cc1ccc(OCc2nc3cc(C(=O)NO)ccc3c(=O)[nH]2)cc1` [Compound I-265, N-hydroxy-2-[(4-methylphenoxy)methyl]-4-oxo-3,4-dihydroquinazoline-7-carboxamide] it is 81.3%; for `CC(C)(C)OC(=O)Nc1cccc(Cn2ccc3ccc(C(=O)NO)cc3c2=O)c1` [Compound I-266, tert-butyl (3-{[7-[(hydroxyamino)carbonyl]-1-oxoisoquinolin-2(1H)-yl]methyl}phenyl)carbamate] it is 87.9%. Same read-out and setting: the figure for `CC(C)(C)c1ccc(Cn2ccc3ccc(C(=O)NO)cc3c2=O)cc1` [Compound I-267, 2-(4-tert-butylbenzyl)-N-hydroxy-1-oxo-1,2-dihydroisoquinoline-7-carboxamide] is 94.8%. As to `O=C(NO)c1ccc2ccn(CCCn3cccc3)c(=O)c2c1` [Compound I-269, N-hydroxy-1-oxo-2-[3-(1H-pyrrol-1-yl)propyl]-1,2-dihydroisoquinoline-7-carboxamide], the inhibition at 0.412 µM turned out to be 94.5%. For the compound `O=C(NO)c1ccc2ccn(CCOc3ccc(OCc4ccccc4)cc3)c(=O)c2c1` [Compound I-270, 2-{2-[4-(benzyloxy)phenoxy]ethyl}-N-hydroxy-1-oxo-1,2-dihydroisoquinoline-7-carboxamide], the inhibition at 0.412 µM amounted to 83.4%.

On to `O=C(NO)c1ccc2ccn(CCOc3ccc(-n4ccnc4)cc3)c(=O)c2c1` [Compound I-271, N-hydroxy-2-{2-[4-(1H-imidazol-1-yl)phenoxy]ethyl}-1-oxo-1,2-dihydroisoquinoline-7-carboxamide], for which the inhibition at 0.412 µM was 96.9%. Consider `O=C(NO)c1ccc2ccn(Cc3nc4ccccc4s3)c(=O)c2c1` [Compound I-272, 2-(1,3-benzothiazol-2-ylmethyl)-N-hydroxy-1-oxo-1,2-dihydroisoquinoline-7-carboxamide], for which the inhibition at 0.412 µM was 97.5%. The same measure, in the same setting: the figure for `O=C(Cn1cnc2ccc(C(=O)NO)cc2c1=O)c1ccc(N2CCCC2)cc1` [Compound I-273, N-hydroxy-4-oxo-3-[2-oxo-2-(4-pyrrolidin-1-ylphenyl)ethyl]-3,4-dihydroquinazoline-6-carboxamide] is 85.1%; for `CC(C)CCCn1cnc2cc(C(=O)NO)ccc2c1=O` [Compound I-275, N-hydroxy-3-(4-methylpentyl)-4-oxo-3,4-dihydroquinazoline-7-carboxamide] it is 94.9%.

Broadly, the inhibition is the change of the read-out against control, counted positive when it falls.
